Assay results reported in patent publication US20230172996A1, “COMPOSITION FOR ALLEVIATING PULMONARY HYPERTENSION, METHOD FOR PREDICTING PROGNOSIS OF PULMONARY HYPERTENSION, METHOD FOR ASSISTING IN DETERMINING SEVERITY OF PULMONARY HYPERTENSION, AND METHOD FOR ASSISTING IN DIAGNOSING PULMONARY HYPERTENSION” (JSR Corporation, priority 2020, published 2023).

System: rat model of pulmonary hypertension induced by exposure to hypoxia
Assay: Butyrate-containing water in rat model of pulmonary hypertension induced by exposure to hypoxia
Type: in vivo, SD rats
Details: 100 mM butyrate in water ad libitum for three weeks, oral, compared to vehicle administration group
Method: Rats were anesthetized by inhalation of isoflurane (Pfizer) for induction of sedation and analgesia. Throughout the procedure, the body temperature of the rats was maintained at 37 to 38° C. using a rectal thermistor coupled with a thermostatically controlled heating pad. The trachea was cannulated, and the lungs were ventilated with a mouse ventilator (Harvard Apparatus) at a tidal volume of 10 μL/g at a frequency of 70/min. A polyethylene tube was inserted into the right external jugular vein and advanced into the right ventricle to measure right ventricular pressure (RVP). RVP signals were detected by a pressure transducer (MLT0670; ADInstruments), and the signals were relayed to pressure amplifiers (ML117; ADInstruments), and then were sampled continuously with a PowerLab system (ADInstruments, Colorado Springs, Colo.) and recorded on a computer using Chart software (ADInstruments). Heart rate was derived from the right ventricular systolic peaks.
After right ventricular systolic pressure measurement, the rats were killed by anesthesia overdose, and the heart was excised. […] The tissues were blotted, and the weight of the right ventricle (RV) and the weight of the left ventricle (LV)+septum were measured. The ratio of RV to LV+septum weight (the ratio of RV to LV weight) was calculated and used as an index of right ventricular hypertrophy. […]

## CCCC(=O)[O-].[Na+] [butyrate, sodium butyrate]
FIG. 33(A)
  right ventricular systolic pressure: significant inhibition
FIG. 33(B)
  right ventricular hypertrophy (ratio of RV to LV weight): significant inhibition
